Measured values published in patent publication US7868026B2, “Therapeutic compounds” (Pfizer Inc., priority 2005, dated 2011).
Like-named read-outs stand apart in the source and are kept apart here.

Tests used:
Assay type in all cases: biochemical
[1] = biological target: T1, CYP3A4 (Homo sapiens, UniProt P08684); experiment: Determination of compound Kiapp against recombinant CYP3A4 enzyme (BFC fluorescent substrate)
Summary of the method: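 Recombinant CYP3A4 (5.5 or 8 nM, with or without b5 depending on source) pre-incubated with inhibitor ≥30 min at room temperature in 100 mM sodium phosphate pH 7.0, 5 mM TCEP, 2% DMF. Reaction started with 200 uM NADPH and 5 uM BFC; initial fluorescence rates over 5 min fitted to Morrison tight-binding (non-partial) or Szedlacsek (partial) equations for Kiapp.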

[2] = biological target: T1, CYP3A4; experiment: Determination of IC50 against CYP3A4 by measurement of inhibition of testosterone metabolism (human liver microsomes, 6-β-OH-testosterone by LC-MS/MS); design: 0.1 mg/mL human liver microsomes; conditions: read-out: IC50 (Testo.)
Summary of the method: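 Human liver microsomes (0.1 mg/mL) incubated with 25 μM testosterone and 1 mM NADPH in 100 mM potassium phosphate, pH 7.4, for eight minutes. 6-β-OH-testosterone measured by LC-MS/MS in MRM mode against an internal standard and quantified from a metabolite standard curve.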

[3] = biological target: T1, CYP3A4; experiment: Determination of IC50 against CYP3A4 by measurement of inhibition of midazolam metabolism (human liver microsomes, 1-hydroxymidazolam by LC-MS/MS); design: 0.1 mg/mL human liver microsomes; conditions: 2 μM midazolam, 0.1 mg/mL human liver microsomes
Summary of the method: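 Human liver microsomes (0.1 mg/mL) incubated 8 min with 2 μM midazolam and 1 mM NADPH in 100 mM potassium phosphate, pH 7.4. 1-Hydroxymidazolam quantified by LC-MS/MS (MRM) as peak area ratio to internal standard against a metabolite standard curve.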

[4] = Baculo. enzyme preparation, read-out: Kiapp (BFC, Baculo.)
[5] = Super. enzyme preparation, read-out: Kiapp (BFC, Super.)

T1 sequence (P08684 whole entry): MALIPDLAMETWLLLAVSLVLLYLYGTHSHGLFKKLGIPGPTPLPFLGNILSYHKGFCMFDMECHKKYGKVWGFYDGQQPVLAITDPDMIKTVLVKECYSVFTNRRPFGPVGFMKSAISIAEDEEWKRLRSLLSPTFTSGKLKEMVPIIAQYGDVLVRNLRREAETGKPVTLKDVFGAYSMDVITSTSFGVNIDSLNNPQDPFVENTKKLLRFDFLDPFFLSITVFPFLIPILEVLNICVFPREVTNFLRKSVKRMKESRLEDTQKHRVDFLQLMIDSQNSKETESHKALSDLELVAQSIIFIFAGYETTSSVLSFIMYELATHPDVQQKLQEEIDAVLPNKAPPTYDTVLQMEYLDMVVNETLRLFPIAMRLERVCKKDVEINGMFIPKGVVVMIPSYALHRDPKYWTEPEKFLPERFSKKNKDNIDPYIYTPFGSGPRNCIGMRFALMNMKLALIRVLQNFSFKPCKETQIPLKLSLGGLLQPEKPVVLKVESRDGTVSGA

## CCOc1ccncc1NS(=O)(=O)c1ccccc1C(=O)NCCOC [Example 217, 2-{[(4-ethoxypyridin-3-yl)amino]sulfonyl}-N-(2-methoxyethyl)benzamide]
[1]; [4]
  Ki: 965 nM
[1]; [5]
  Ki: 216 nM
[2]
  IC50: 230 nM
[3]
  IC50: 179 nM

## CC1CCN(C(=O)c2ccccc2S(=O)(=O)N(C)c2cccnc2)CC1 [Example 356, N-methyl-2-[(4-methylpiperidin-1-yl)carbonyl]-N-pyridin-3-ylbenzenesulfonamide]
[1]; [4]
  Ki: 483 nM
[1]; [5]
  Ki: 148 nM
[2]
  IC50: 114 nM
[3]
  IC50: 83 nM

## COc1cncc(NS(=O)(=O)c2ccccc2C(=O)NCc2cc(F)cc(F)c2)c1 [Example 184, N-(3,5-difluorobenzyl)-2-{[(5-methoxypyridin-3-yl)amino]sulfonyl}benzamide]
[1]; [4]
  Ki: 54.5 nM
[1]; [5]
  Ki: 5.9 nM
[2]
  IC50: 11 nM
[3]
  IC50: 13 nM

## COc1cncc(NS(=O)(=O)c2ccccc2C(=O)N2CCC(C)CC2)c1 [Example 389, N-(5-methoxypyridin-3-yl)-2-[(4-methylpiperidin-1-yl)carbonyl]benzenesulfonamide]
[1]; [4]
  Ki: 241 nM
[1]; [5]
  Ki: 2.81 nM
[2]
  IC50: 57 nM
[3]
  IC50: 24 nM

## COc1cncc(NS(=O)(=O)c2ccccc2C(=O)NC(C(C)C)C(C)C)c1 [Example 211, N-(1-isopropyl-2-methylpropyl)-2-{[(5-methoxypyridin-3-yl)amino]sulfonyl}benzamide]
[1]; [4]
  Ki: 33.6 nM
[1]; [5]
  Ki: 7.9 nM
[2]
  IC50: 19 nM
[3]
  IC50: 4 nM

## COc1ccncc1NS(=O)(=O)c1ccccc1C(=O)N1CCCCC1 [Example 18, N-(4-methoxypyridin-3-yl)-2-(piperidin-1-ylcarbonyl)benzenesulfonamide]
[1]; [4]
  Ki: 570 nM
[2]
  IC50: 349 nM
[3]
  IC50: 146 nM

## CCOc1ccncc1NS(=O)(=O)c1ccccc1C(=O)NCCOc1ccccc1 [Example 219]
[1]; [4]
  Ki: 108 nM
[1]; [5]
  Ki: 40.3 nM
[2]
  IC50: 32 nM
[3]
  IC50: 27 nM

## CC1CCN(CC(C)(C)NC(=O)c2ccccc2S(=O)(=O)Nc2cccnc2)CC1 [Example 1, N-[1,1-dimethyl-2-(4-methylpiperidin-1-yl)ethyl]-2-[(pyridin-3-ylamino)sulfonyl]benzamide]
[1]; [4]
  Ki: 538 nM
[1]; [5]
  Ki: 662 nM
[2]
  IC50: < 3 nM
[3]
  IC50: 390 nM

## COc1cncc(NS(=O)(=O)c2ccc(OCCN3CCOCC3)cc2C(=O)NCc2ccc(F)cc2)c1 [Example 265, N-(4-fluorobenzyl)-2-{[(5-methoxypyridin-3-yl)amino]sulfonyl}-5-(2-morpholin-4-ylethoxy)benzamide]
[1]; [4]
  Ki: 29.6 nM
[1]; [5]
  Ki: 12.6 nM
[2]
  IC50: 41 nM
[3]
  IC50: 23 nM

## O=C(NCc1ccc(F)c(F)c1)c1ccccc1S(=O)(=O)Nc1cccnc1 [Example 85, N-(3,4-difluorobenzyl)-2-[(pyridin-3-ylamino)sulfonyl]benzamide]
[1]; [4]
  Ki: 105 nM
[1]; [5]
  Ki: 12.1 nM
[2]
  IC50: 41 nM
[3]
  IC50: 16 nM

## O=C(c1ccccc1S(=O)(=O)Nc1cccnc1)N1CCc2ccccc2C1 [Example 83, 2-(3,4-dihydroisoquinolin-2(1H)-ylcarbonyl)-N-pyridin-3-ylbenzenesulfonamide]
[1]; [4]
  Ki: 127 nM
[1]; [5]
  Ki: 12.8 nM
[2]
  IC50: 28 nM
[3]
  IC50: 35 nM

## CCCN(C)C(=O)c1ccccc1S(=O)(=O)Nc1cncc(OC)c1 [Example 245, 2-{[(5-methoxypyridin-3-yl)amino]sulfonyl}-N-methyl-N-propylbenzamide]
[1]; [4]
  Ki: 164 nM
[1]; [5]
  Ki: 18.7 nM
[2]
  IC50: 63 nM
[3]
  IC50: 29 nM

## CCOc1cncc(NS(=O)(=O)c2ccccc2C(=O)NCCC(C)C)c1 [Example 296, 2-{[(5-ethoxypyridin-3-yl)amino]sulfonyl}-N-(3-methylbutyl)benzamide]
[1]; [4]
  Ki: 35.8 nM
[1]; [5]
  Ki: 9.32 nM
[2]
  IC50: 90 nM
[3]
  IC50: 12 nM
